Measurements as given in patent US12662498B2 (priority 2017, dated 2026).

What was measured:
[1] = ICH stability study of psilocybin batches (appearance, water content, purity, assay); conditions: accelerated conditions
[2] = Heat cycling slurry maturation of Psilocybin Pattern A in 24 solvents (visual solubility); also: test concentration or dose not given here

SMILES: CN(C)CCc1c[nH]c2cccc(OP(=O)(O)O)c12 [Polymorph A]
- time stable under accelerated stability testing conditions [1]: 12 months
- Obs. 20° C., 0.4 ml ([2]; 2-Chlorobutane): Susp.
- Obs. 20° C., 0.8 ml ([2]; 2-Chlorobutane): Susp.
- Obs. 20° C., 1.2 ml ([2]; 2-Chlorobutane): Susp.
- Obs. 50° C. ([2]; 2-Chlorobutane, 1.2 ml): Susp.
- Obs. 20° C., 0.4 ml ([2]; 4:1 EtOH/water): Susp.
- Obs. 20° C., 0.8 ml ([2]; 4:1 EtOH/water): Susp.
- Obs. 20° C., 1.2 ml ([2]; 4:1 EtOH/water): Susp.
- Obs. 50° C. ([2]; 4:1 EtOH/water, 1.2 ml): Susp.
- Obs. 20° C., 0.4 ml ([2]; 4:1 IPA/water): Susp.
- Obs. 20° C., 0.8 ml ([2]; 4:1 IPA/water): Susp.
- Obs. 20° C., 1.2 ml ([2]; 4:1 IPA/water): Susp.
- Obs. 50° C. ([2]; 4:1 IPA/water, 1.2 ml): Susp.
- Obs. 20° C., 0.4 ml ([2]; 4:1 THF/water): Susp.
- Obs. 20° C., 0.8 ml ([2]; 4:1 THF/water): Susp.
- Obs. 20° C., 1.2 ml ([2]; 4:1 THF/water): Susp.
- Obs. 50° C. ([2]; 4:1 THF/water, 1.2 ml): Susp.
- Obs. 20° C., 0.4 ml ([2]; Anisole): Susp.
- Obs. 20° C., 0.8 ml ([2]; Anisole): Susp.
- Obs. 20° C., 1.2 ml ([2]; Anisole): Susp.
- Obs. 50° C. ([2]; Anisole, 1.2 ml): Susp.
- Obs. 20° C., 0.4 ml ([2]; Benzotrifluoride): Susp.
- Obs. 20° C., 0.8 ml ([2]; Benzotrifluoride): Susp.
- Obs. 20° C., 1.2 ml ([2]; Benzotrifluoride): Susp.
- Obs. 50° C. ([2]; Benzotrifluoride, 1.2 ml): Susp.
- Obs. 20° C., 0.4 ml ([2]; CHCl3): Susp.
- Obs. 20° C., 0.8 ml ([2]; CHCl3): Susp.
- Obs. 20° C., 1.2 ml ([2]; CHCl3): Susp.
- Obs. 50° C. ([2]; CHCl3, 1.2 ml): Susp.
- Obs. 20° C., 0.4 ml ([2]; CPME): Susp.
- Obs. 20° C., 0.8 ml ([2]; CPME): Susp.
- Obs. 20° C., 1.2 ml ([2]; CPME): Susp.
- Obs. 50° C. ([2]; CPME, 1.2 ml): Susp.
- Obs. 20° C., 0.4 ml ([2]; Chlorobenzene): Susp.
- Obs. 20° C., 0.8 ml ([2]; Chlorobenzene): Susp.
- Obs. 20° C., 1.2 ml ([2]; Chlorobenzene): Susp.
- Obs. 50° C. ([2]; Chlorobenzene, 1.2 ml): Susp.
- Obs. 20° C., 0.4 ml ([2]; Cyclohexane): Susp.
- Obs. 20° C., 0.8 ml ([2]; Cyclohexane): Susp.
- Obs. 20° C., 1.2 ml ([2]; Cyclohexane): Susp.
- Obs. 50° C. ([2]; Cyclohexane, 1.2 ml): Susp.
- Obs. 20° C., 0.4 ml ([2]; EtOAc): Susp.
- Obs. 20° C., 0.8 ml ([2]; EtOAc): Susp.
- Obs. 20° C., 1.2 ml ([2]; EtOAc): Susp.
- Obs. 50° C. ([2]; EtOAc, 1.2 ml): Susp.
- Obs. 20° C., 0.4 ml ([2]; EtOH): Susp.
- Obs. 20° C., 0.8 ml ([2]; EtOH): Susp.
- Obs. 20° C., 1.2 ml ([2]; EtOH): Susp.
- Obs. 50° C. ([2]; EtOH, 1.2 ml): Susp.
- Obs. 20° C., 0.4 ml ([2]; Heptane): Susp.
- Obs. 20° C., 0.8 ml ([2]; Heptane): Susp.
- Obs. 20° C., 1.2 ml ([2]; Heptane): Susp.
- Obs. 50° C. ([2]; Heptane, 1.2 ml): Susp.
- Obs. 20° C., 0.4 ml ([2]; IPA): Susp.
- Obs. 20° C., 0.8 ml ([2]; IPA): Susp.
- Obs. 20° C., 1.2 ml ([2]; IPA): Susp.
- Obs. 50° C. ([2]; IPA, 1.2 ml): Susp.
- Obs. 20° C., 0.4 ml ([2]; MEK): Susp.
- Obs. 20° C., 0.8 ml ([2]; MEK): Susp.
- Obs. 20° C., 1.2 ml ([2]; MEK): Susp.
- Obs. 50° C. ([2]; MEK, 1.2 ml): Susp.
- Obs. 20° C., 0.4 ml ([2]; MIBK): Susp.
- Obs. 20° C., 0.8 ml ([2]; MIBK): Susp.
- Obs. 20° C., 1.2 ml ([2]; MIBK): Susp.
- Obs. 50° C. ([2]; MIBK, 1.2 ml): Susp.
- Obs. 20° C., 0.4 ml ([2]; MeCN): Susp.
- Obs. 20° C., 0.8 ml ([2]; MeCN): Susp.
- Obs. 20° C., 1.2 ml ([2]; MeCN): Susp.
- Obs. 50° C. ([2]; MeCN, 1.2 ml): Susp.
- Obs. 20° C., 0.4 ml ([2]; MeOH): Susp.
- Obs. 20° C., 0.8 ml ([2]; MeOH): Susp.
- Obs. 20° C., 1.2 ml ([2]; MeOH): Susp.
- Obs. 50° C. ([2]; MeOH, 1.2 ml): Susp.
- Obs. 20° C., 0.4 ml ([2]; Nitromethane): Susp.
- Obs. 20° C., 0.8 ml ([2]; Nitromethane): Susp.
- Obs. 20° C., 1.2 ml ([2]; Nitromethane): Susp.
- Obs. 50° C. ([2]; Nitromethane, 1.2 ml): Susp.
- Obs. 20° C., 0.4 ml ([2]; TBME): Susp.
- Obs. 20° C., 0.8 ml ([2]; TBME): Susp.
- Obs. 20° C., 1.2 ml ([2]; TBME): Susp.
- Obs. 50° C. ([2]; TBME, 1.2 ml): Susp.
- Obs. 20° C., 0.4 ml ([2]; THF): Susp.
- Obs. 20° C., 0.8 ml ([2]; THF): Susp.
- Obs. 20° C., 1.2 ml ([2]; THF): Susp.
- Obs. 50° C. ([2]; THF, 1.2 ml): Susp.
- Obs. 20° C., 0.4 ml ([2]; Toluene): Susp.
- Obs. 20° C., 0.8 ml ([2]; Toluene): Susp.
- Obs. 20° C., 1.2 ml ([2]; Toluene): Susp.
- Obs. 50° C. ([2]; Toluene, 1.2 ml): Susp.
- Obs. 20° C., 0.4 ml ([2]; Water): Susp.
- Obs. 20° C., 0.8 ml ([2]; Water): Susp.
- Obs. 20° C., 1.2 ml ([2]; Water): Susp.
- Obs. 50° C. ([2]; Water, 1.2 ml): Solution
- Obs. 20° C., 0.4 ml ([2]; iPrOAc): Susp.
- Obs. 20° C., 0.8 ml ([2]; iPrOAc): Susp.
- Obs. 20° C., 1.2 ml ([2]; iPrOAc): Susp.
- Obs. 50° C. ([2]; iPrOAc, 1.2 ml): Susp.
